Measured values published in patent US20130137629A1, “COMBINATION TREATMENT FOR METABOLIC DISORDERS” (WELLSTAT THERAPEUTICS CORPORATION, priority 2006, published 2013).

Experiments:
late-stage db/db mice = assay: Example 1: late-stage db/db mice treated daily for 4 weeks; serum glucose, serum insulin and islet insulin; format: in vivo
Procedure: Serum glucose and insulin and pancreatic insulin were measured.

db/db mice [1] = assay: Example 2: db/db mice with glucose above 400 mg/dL treated for 4 weeks; circulating glucose and pancreatic insulin (ECL assay); format: in vivo; settings: Compound BI 100 mg/kg by oral gavage, exendin 3 μg/kg or 10 μg/kg i.p.
Procedure: Peripheral blood glucose levels of db/db mice was monitored. When the glucose levels exceeded 400 mg/dL the mice were divided into groups of 6 mice each. The mice in each group were given either vehicle or Compound BI (100 mg/kg by oral gavage)+/−i.p. injections of exendin-amide (Bachem, King of Prussia, PA) as indicated below for 4 weeks. • 1) Vehicle • 2) Vehicle+Exendin (3 μg/kg) • 3) Vehicle+Exendin (10 μg/kg) • 4) Compound BI • 5) Compound BI+Exendin (3 μg/kg) • 6) Compound BI+Exendin (10 μg/kg)
After four weeks of treatment, the mice were bled via the retroorbital sinus and sera sent to Anilytics, Inc. (Gaithersburg, Md.) for analysis of circulating glucose levels. The pancreata were collected, weighed, flash frozen and then processed for pancreatic insulin assays. Briefly, the pancreas was placed into pancreatic extraction solution (75% ethanol and 25% 0.15N HCl) and the volume adjusted to 1 mL per 100 mg of pancreas. The pancreas was then sonicated and stored at −20° C. overnight. The next day, the samples were centrifuged at 2500 rpm for 5 minutes at 4° C. to pellet unsolubilized material. 1.5 mL of supernatant was placed in an Eppendorf tube and spun in a microcentrifuge at 1300 rpm for 20 minutes at 4° C. to pellet any remaining unsolubilized material. […] The samples were then read on an M384 instrument (BioVeris Corp., Gaithersburg, Md.). […]

db/db mice [2] = assay: Example 5: ten week-old db/db mice, Compound BI +/- P32/98 for 4 weeks; format: in vivo; settings: Compound BI 100 mg/kg p.o., P32/98 10 mg/kg twice a day by gavage; for Circulating glucose levels: FIG. 11; for Pancreatic insulin: FIG. 12
Procedure: Ten week-old db/db mice were given vehicle or Compound BI (100 mg/kg, p.o.)+/−P32/98 (10 mg/kg, twice a day by gavage) as indicated for 4 weeks. Assays for circulating glucose and pancreatic insulin were conducted as in Example 3.

db/db mice [3] = settings: previous studies; cited from earlier work
[4] = system: streptozotocin-induced diabetes; settings: Pospisilik et al., Diabetes 52:741-750, 2003; cited from earlier work

For `Cc1cccc(C)c1COc1cccc(C(=O)CCC(=O)O)c1` [Compound BI, 4-(3-(2,6-Dimethylbenzyloxy)phenyl)-4-oxobutyric acid], the Serum glucose (late-stage db/db mice; daily for 4 weeks, Compound BI 100 mg/kg/day p.o., Exendin-4 amide 10 microgram/day i.p., FIG. 1) was “reduced serum glucose substantially”, the Islet insulin (late-stage db/db mice; daily for 4 weeks, Compound BI 100 mg/kg/day p.o., Exendin-4 amide 10 microgram/day i.p., FIG. 2) was “had more insulin than either of those two groups” and the Serum insulin (late-stage db/db mice; daily for 4 weeks, Compound BI 100 mg/kg/day p.o., Exendin-4 amide 10 microgram/day i.p., FIG. 3) was “without a significant increase in serum insulin”. For the same compound, the Insulin resistance (late-stage db/db mice; inferred from glucose lowering without a significant increase in serum insulin, 4 weeks) was “reduced insulin resistance”, the Circulating glucose levels (db/db mice [1]; FIG. 4) was “significant reduction in circulating glucose levels” and the Pancreatic insulin (db/db mice [1]; FIG. 5) was “corresponding increase in pancreatic insulin”. For the same compound, the Circulating glucose levels (db/db mice [2]) was “reduced circulating glucose levels”, the Pancreatic insulin (db/db mice [2]) was “increased pancreatic insulin levels” and the Islet insulin content (db/db mice [3]) was “preserves islet insulin content”.
For `CC[C@H](C)[C@H](N)C(=O)N1CCSC1` [P32/98, reference compound], the Circulating glucose levels (db/db mice [2]) is listed as “slight reduction in circulating glucose levels”, the Pancreatic insulin (db/db mice [2]) is listed as “no increase in pancreatic insulin” and the “Activity in streptozotocin-induced diabetes” value [4] is listed as “active”.
